In PubChem BioAssay (NCI):
Where “and” joins values, the source holds several entries; their conditions need not be identical. Equal entries are not always repeated.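 Assay format: 96-well plates, 48-hour exposure. GI50 marks 50% less growth. TGI denotes the concentration required for complete inhibition of growth.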

Experiments:
Test in all cases: NCI-60 cell line screen, 48 h
SF-268 CNS = system: SF-268 CNS
SNB-75 CNS = system: SNB-75 CNS
NCI-H460 lung = system: NCI-H460 lung
EKVX NSCLC = system: EKVX NSCLC
MDA-MB-435 = system: MDA-MB-435
HCT-116 colon = system: HCT-116 colon
DU-145 prostate = system: DU-145 prostate
SK-OV-3 ovarian = system: SK-OV-3 ovarian
UO-31 renal = system: UO-31 renal
OVCAR-4 ovarian = system: OVCAR-4 ovarian
NCI-H23 lung = system: NCI-H23 lung
A549 NSCLC = system: A549 NSCLC
NCI-H226 lung = system: NCI-H226 lung
UACC-62 melanoma = system: UACC-62 melanoma
SK-MEL-5 melanoma = system: SK-MEL-5 melanoma
SF-295 CNS = system: SF-295 CNS
KM12 colon = system: KM12 colon
HT29 colon = system: HT29 colon
HCC-2998 colon = system: HCC-2998 colon
TK-10 renal = system: TK-10 renal
A498 renal = system: A498 renal
RXF 393 renal = system: RXF 393 renal
SK-MEL-28 melanoma = system: SK-MEL-28 melanoma
HOP-92 NSCLC = system: HOP-92 NSCLC
PC-3 prostate = system: PC-3 prostate
U251 CNS = system: U251 CNS
MCF7 breast = system: MCF7 breast
COLO 205 colon = system: COLO 205 colon
SN12C renal = system: SN12C renal
BT-549 breast = system: BT-549 breast
IGROV1 ovarian = system: IGROV1 ovarian
SK-MEL-2 melanoma = system: SK-MEL-2 melanoma
MDA-N = system: MDA-N
SNB-19 CNS = system: SNB-19 CNS
NCI/ADR-RES ovarian = system: NCI/ADR-RES ovarian
K-562 leukemia = system: K-562 leukemia
UACC-257 melanoma = system: UACC-257 melanoma
CAKI-1 renal = system: CAKI-1 renal
ACHN renal = system: ACHN renal
MDA-MB-231 breast = system: MDA-MB-231 breast
MOLT-4 leukemia = system: MOLT-4 leukemia
MALME-3M melanoma = system: MALME-3M melanoma
786-0 renal = system: 786-0 renal
M14 melanoma = system: M14 melanoma
HCT-15 colon = system: HCT-15 colon
RPMI-8226 leukemia = system: RPMI-8226 leukemia
OVCAR-5 ovarian = system: OVCAR-5 ovarian
SW-620 colon = system: SW-620 colon
NCI-H522 lung = system: NCI-H522 lung
OVCAR-8 ovarian = system: OVCAR-8 ovarian
CCRF-CEM leukemia = system: CCRF-CEM leukemia
SF-539 CNS = system: SF-539 CNS
HL-60(TB) leukemia = system: HL-60(TB) leukemia
T-47D breast = system: T-47D breast
LOX IMVI melanoma = system: LOX IMVI melanoma
SR leukemia = system: SR leukemia
OVCAR-3 ovarian = system: OVCAR-3 ovarian
HS 578T breast = system: HS 578T breast
HOP-62 NSCLC = system: HOP-62 NSCLC

Work on `Nn1c(CCCCCCCCc2nnc(COc3c(O)ccc4ccccc34)n2N)nnc1COc1c(O)ccc2ccccc12` yielded a TGI (SF-268 CNS) of over 100 µM, a TGI (SNB-75 CNS) of over 100 µM and a TGI (NCI-H460 lung) of over 100 µM. For the same compound, the TGI (EKVX NSCLC) was over 100 µM, the TGI (MDA-MB-435) was over 100 µM and the TGI (HCT-116 colon) was over 100 µM. The TGI (DU-145 prostate) was over 100 µM, the TGI (SK-OV-3 ovarian) was over 100 µM and the TGI (UO-31 renal) was over 100 µM. It also gave a TGI (OVCAR-4 ovarian) of over 100 µM, a TGI (NCI-H23 lung) of over 100 µM and a TGI (A549 NSCLC) of over 100 µM. For the same compound, the TGI (NCI-H226 lung) was over 100 µM, the TGI (UACC-62 melanoma) was over 100 µM and the TGI (SK-MEL-5 melanoma) was over 100 µM. The TGI (SF-295 CNS) was over 100 µM, the TGI (KM12 colon) was over 100 µM and the TGI (HT29 colon) was over 100 µM. The TGI (HCC-2998 colon) was over 100 µM, the TGI (TK-10 renal) was over 100 µM and the TGI (A498 renal) was over 100 µM. The TGI (RXF 393 renal) was over 100 µM, the TGI (SK-MEL-28 melanoma) was over 100 µM and the TGI (HOP-92 NSCLC) was over 100 µM. For the same compound, the TGI (PC-3 prostate) was over 100 µM, the TGI (U251 CNS) was over 100 µM and the TGI (MCF7 breast) was over 100 µM. It also gave a TGI (COLO 205 colon) of over 100 µM, a TGI (SN12C renal) of over 100 µM and a TGI (BT-549 breast) of over 100 µM. It also gave a TGI (IGROV1 ovarian) of over 100 µM, a TGI (SK-MEL-2 melanoma) of over 100 µM and a TGI (MDA-N) of over 100 µM. For the same compound, the TGI (SNB-19 CNS) was over 100 µM, the TGI (NCI/ADR-RES ovarian) was over 100 µM and the TGI (K-562 leukemia) was over 100 µM. It also gave a TGI (UACC-257 melanoma) of over 100 µM, a TGI (CAKI-1 renal) of over 100 µM and a TGI (ACHN renal) of over 100 µM. It also gave a TGI (MDA-MB-231 breast) of over 100 µM, a TGI (MOLT-4 leukemia) of over 100 µM and a TGI (MALME-3M melanoma) of over 100 µM. For the same compound, the TGI (786-0 renal) was over 100 µM, the TGI (M14 melanoma) was over 100 µM and the TGI (HCT-15 colon) was over 100 µM. The TGI (RPMI-8226 leukemia) was over 100 µM, the TGI (OVCAR-5 ovarian) was over 100 µM and the TGI (SW-620 colon) was over 100 µM. It also gave a TGI (NCI-H522 lung) of over 100 µM.

In the case of `CC(C)NC[C@@H](C(=O)N1CCN(c2ncnc3c2[C@H](C)C[C@H]3O)CC1)c1ccc(Cl)cc1`, the GI50 (SF-268 CNS) is reported as > 10 µM and 28.7 µM, the TGI (SF-268 CNS) is reported as over 100 µM and the GI50 (SNB-75 CNS) is reported as 0.285 µM and 0.213 µM. For the same compound, the TGI (SNB-75 CNS) was > 10 µM and 5.44 µM, the GI50 (OVCAR-8 ovarian) was over 100 µM and the TGI (OVCAR-8 ovarian) was over 100 µM. The GI50 (NCI-H460 lung) was 1.47 µM and 2.33 µM, the TGI (NCI-H460 lung) was over 100 µM and the GI50 (EKVX NSCLC) was over 10 µM. The TGI (EKVX NSCLC) was over 10 µM, the GI50 (MDA-MB-435) was > 10 µM and 20.9 µM and the TGI (MDA-MB-435) was over 100 µM. The GI50 (HCT-116 colon) was > 10 µM and 23.8 µM, the TGI (HCT-116 colon) was over 100 µM and the GI50 (DU-145 prostate) was > 10 µM and 40.3 µM. The TGI (DU-145 prostate) was over 100 µM, the GI50 (CCRF-CEM leukemia) was 1.57 µM and 1.24 µM and the TGI (CCRF-CEM leukemia) was over 100 µM. The GI50 (SF-539 CNS) was 0.401 µM and 0.396 µM, the TGI (SF-539 CNS) was > 10 µM and 40.1 µM and the GI50 (SK-OV-3 ovarian) was 0.596 µM and 0.783 µM. For the same compound, the TGI (SK-OV-3 ovarian) was over 100 µM, the GI50 (UO-31 renal) was 6.57 µM and 16.2 µM and the TGI (UO-31 renal) was over 87.3 µM. The GI50 (OVCAR-4 ovarian) was over 74 µM, the TGI (OVCAR-4 ovarian) was over 100 µM and the GI50 (HL-60(TB) leukemia) was > 10 µM and 39.4 µM. The TGI (HL-60(TB) leukemia) was over 100 µM, the GI50 (NCI-H23 lung) was > 10 µM and 31.2 µM and the TGI (NCI-H23 lung) was over 100 µM. For the same compound, the GI50 (A549 NSCLC) was > 10 µM and 5.05 µM, the TGI (A549 NSCLC) was over 100 µM and the GI50 (NCI-H226 lung) was 5.16 µM and 13.3 µM. For the same compound, the TGI (NCI-H226 lung) was over 100 µM, the GI50 (UACC-62 melanoma) was 1.9 µM and 6 µM and the TGI (UACC-62 melanoma) was over 100 µM. For the same compound, the GI50 (SK-MEL-5 melanoma) was > 10 µM and 27.8 µM, the TGI (SK-MEL-5 melanoma) was over 100 µM and the GI50 (T-47D breast) was 0.208 µM and 0.236 µM. For the same compound, the GI50 (LOX IMVI melanoma) was > 10 µM and 66 µM, the TGI (LOX IMVI melanoma) was over 100 µM and the GI50 (SR leukemia) was > 10 µM and 13 µM. The TGI (SR leukemia) was over 71.5 µM, the GI50 (SF-295 CNS) was 0.68 µM and 0.47 µM and the TGI (SF-295 CNS) was over 75.1 µM. The GI50 (KM12 colon) was 0.891 µM and 1.43 µM, the TGI (KM12 colon) was over 91.9 µM and the GI50 (HT29 colon) was 1.58 µM and 3.45 µM. The TGI (HT29 colon) was over 100 µM, the TGI (HCC-2998 colon) was over 100 µM and the GI50 (TK-10 renal) was 1.29 µM and 3.32 µM. The TGI (TK-10 renal) was over 66.4 µM, the GI50 (A498 renal) was 0.396 µM and 0.24 µM and the TGI (A498 renal) was 5.88 µM and 4.3 µM. The GI50 (RXF 393 renal) was 0.293 µM and 0.341 µM, the TGI (RXF 393 renal) was 4.85 µM and 5.55 µM and the GI50 (SK-MEL-28 melanoma) was > 10 µM and 36.6 µM. For the same compound, the TGI (SK-MEL-28 melanoma) was over 100 µM, the GI50 (HOP-92 NSCLC) was 0.407 µM and 1.13 µM and the TGI (HOP-92 NSCLC) was 6.8 µM and 11.6 µM. The GI50 (PC-3 prostate) was 0.566 µM and 0.887 µM, the TGI (PC-3 prostate) was over 100 µM and the GI50 (U251 CNS) was 0.958 µM and 0.683 µM. The TGI (U251 CNS) was over 100 µM, the GI50 (MCF7 breast) was 1.6 µM and 1.74 µM and the TGI (MCF7 breast) was over 100 µM. For the same compound, the GI50 (COLO 205 colon) was 3.48 µM and 7.6 µM, the TGI (COLO 205 colon) was over 100 µM and the GI50 (SN12C renal) was > 10 µM and 44.7 µM. For the same compound, the TGI (SN12C renal) was over 100 µM, the GI50 (BT-549 breast) was 0.752 µM and 1.59 µM and the TGI (BT-549 breast) was > 10 µM and 56.2 µM. The GI50 (IGROV1 ovarian) was 0.156 µM and 0.203 µM, the TGI (IGROV1 ovarian) was 0.731 µM and 3.02 µM and the GI50 (SK-MEL-2 melanoma) was > 10 µM and 33 µM. For the same compound, the TGI (SK-MEL-2 melanoma) was over 80.2 µM, the GI50 (OVCAR-3 ovarian) was > 10 µM and 12.3 µM and the TGI (OVCAR-3 ovarian) was over 100 µM. The GI50 (SNB-19 CNS) was 1.64 µM and 1.38 µM, the TGI (SNB-19 CNS) was over 89.5 µM and the GI50 (NCI/ADR-RES ovarian) was over 100 µM. For the same compound, the TGI (NCI/ADR-RES ovarian) was over 100 µM, the GI50 (HS 578T breast) was 1 µM and 0.657 µM and the TGI (HS 578T breast) was > 10 µM and 18.4 µM. The GI50 (K-562 leukemia) was > 10 µM and 48.1 µM, the TGI (K-562 leukemia) was over 100 µM and the GI50 (UACC-257 melanoma) was > 10 µM and 10.8 µM. For the same compound, the TGI (UACC-257 melanoma) was > 10 µM and 49.8 µM, the GI50 (CAKI-1 renal) was > 10 µM and 36.1 µM and the TGI (CAKI-1 renal) was over 100 µM. For the same compound, the GI50 (ACHN renal) was > 10 µM and 22.8 µM, the TGI (ACHN renal) was over 100 µM and the GI50 (MDA-MB-231 breast) was over 69 µM. The TGI (MDA-MB-231 breast) was over 100 µM, the GI50 (MOLT-4 leukemia) was 0.676 µM and 0.747 µM and the TGI (MOLT-4 leukemia) was > 10 µM and 73.9 µM. The GI50 (MALME-3M melanoma) was > 10 µM and 4.54 µM, the TGI (MALME-3M melanoma) was over 76.7 µM and the GI50 (786-0 renal) was 0.334 µM and 0.546 µM. The TGI (786-0 renal) was over 100 µM, the GI50 (HOP-62 NSCLC) was > 10 µM and 11.9 µM and the TGI (HOP-62 NSCLC) was over 100 µM. The GI50 (M14 melanoma) was over 61.5 µM, the TGI (M14 melanoma) was over 100 µM and the GI50 (HCT-15 colon) was > 10 µM and 44.8 µM. The TGI (HCT-15 colon) was over 100 µM, the GI50 (RPMI-8226 leukemia) was > 10 µM and 38.1 µM and the TGI (RPMI-8226 leukemia) was over 100 µM. For the same compound, the GI50 (OVCAR-5 ovarian) was > 10 µM and 29.8 µM, the TGI (OVCAR-5 ovarian) was over 100 µM and the GI50 (SW-620 colon) was > 10 µM and 35.9 µM. For the same compound, the TGI (SW-620 colon) was over 100 µM, the GI50 (NCI-H522 lung) was over 100 µM and the TGI (NCI-H522 lung) was over 100 µM.
